In brackets after ≈: the same amount, converted by molar mass. Where two headings read alike, the source gives them in different places.
Legend:
C. neoformans [1] = assay: In vitro susceptibility testing (MIC80); assay type: cell-based, Cryptococcus neoformans
Method: MICs were determined by following the methods of the Clinical and Laboratory Standards Institute (CLSI), with modifications. […] The compounds were serially diluted from 32 to 0.03 μg/ml in a 96-well plate. The inoculum was prepared as described in CLSI protocol M27A3 guidelines ([39]). […] The MICs were determined as the lowest concentration of the compound that inhibited 80% of growth compared to the control.

Aspergillus fumigatus = assay: Mouse model of invasive pulmonary aspergillosis; assay type: in vivo, mice; details: oral 20 mg/kg/day; for lung fungal burden (CFU) of surviving mice: at the endpoint, data not shown; for mice that survived: immunosuppressed mice, after 15 days
Method: For survival study, 8-week-old CBA/J (Envigo) male mice were used. They were divided into sets of 10 mice for each treatment or control group. The day prior to infection, the mice were immunosuppressed by using triamcinolone acetonide (1 mg/mouse) subcutaneously ([40]). On day 0, mice were infected intranasally with 20 μl of a suspension containing 2 × 10^4 conidia of A. fumigatus strain Af293 and were treated through gavage with 20 mg/kg/day of BHBM, D13, or voriconazole (as a drug control) in a final volume of 100 μl of 30% PEG in saline buffer. The untreated control group mice received 100 μl of 30% PEG in saline buffer. Mice were fed ad libitum and were given 50% grapefruit juice in place of normal drinking water to avoid the liver metabolism of the drugs ([41]). Mice were monitored every day for discomfort and sacrificed subsequently.

C. neoformans [2] = assay: In vitro killing assay; details: minimum concentration that kills 100% of C. neoformans cells in 48 h
Method: C. neoformans cells from a culture grown overnight were washed in PBS and resuspended in YNB buffered with HEPES at pH 7.4. The cells were counted, and 2 × 10^4 cells were incubated with different concentrations of the drugs in a final volume of 10 ml with a final concentration of 0.5% DMSO. The tubes were then incubated at 37°C with 5% CO2 on a rotary shaker at 200 rpm. Aliquots were taken at the time points indicated and diluted, and 100-µl portions were plated onto YPD plates.

[3] = molecular target: human ether-a-go-go-related gene (hERG) potassium channel (Homo sapiens, UniProt Q12809); assay: hERG patch clamp assay; assay type: cell-based
Chain of human ether-a-go-go-related gene (hERG) potassium channel (Q12809 whole entry): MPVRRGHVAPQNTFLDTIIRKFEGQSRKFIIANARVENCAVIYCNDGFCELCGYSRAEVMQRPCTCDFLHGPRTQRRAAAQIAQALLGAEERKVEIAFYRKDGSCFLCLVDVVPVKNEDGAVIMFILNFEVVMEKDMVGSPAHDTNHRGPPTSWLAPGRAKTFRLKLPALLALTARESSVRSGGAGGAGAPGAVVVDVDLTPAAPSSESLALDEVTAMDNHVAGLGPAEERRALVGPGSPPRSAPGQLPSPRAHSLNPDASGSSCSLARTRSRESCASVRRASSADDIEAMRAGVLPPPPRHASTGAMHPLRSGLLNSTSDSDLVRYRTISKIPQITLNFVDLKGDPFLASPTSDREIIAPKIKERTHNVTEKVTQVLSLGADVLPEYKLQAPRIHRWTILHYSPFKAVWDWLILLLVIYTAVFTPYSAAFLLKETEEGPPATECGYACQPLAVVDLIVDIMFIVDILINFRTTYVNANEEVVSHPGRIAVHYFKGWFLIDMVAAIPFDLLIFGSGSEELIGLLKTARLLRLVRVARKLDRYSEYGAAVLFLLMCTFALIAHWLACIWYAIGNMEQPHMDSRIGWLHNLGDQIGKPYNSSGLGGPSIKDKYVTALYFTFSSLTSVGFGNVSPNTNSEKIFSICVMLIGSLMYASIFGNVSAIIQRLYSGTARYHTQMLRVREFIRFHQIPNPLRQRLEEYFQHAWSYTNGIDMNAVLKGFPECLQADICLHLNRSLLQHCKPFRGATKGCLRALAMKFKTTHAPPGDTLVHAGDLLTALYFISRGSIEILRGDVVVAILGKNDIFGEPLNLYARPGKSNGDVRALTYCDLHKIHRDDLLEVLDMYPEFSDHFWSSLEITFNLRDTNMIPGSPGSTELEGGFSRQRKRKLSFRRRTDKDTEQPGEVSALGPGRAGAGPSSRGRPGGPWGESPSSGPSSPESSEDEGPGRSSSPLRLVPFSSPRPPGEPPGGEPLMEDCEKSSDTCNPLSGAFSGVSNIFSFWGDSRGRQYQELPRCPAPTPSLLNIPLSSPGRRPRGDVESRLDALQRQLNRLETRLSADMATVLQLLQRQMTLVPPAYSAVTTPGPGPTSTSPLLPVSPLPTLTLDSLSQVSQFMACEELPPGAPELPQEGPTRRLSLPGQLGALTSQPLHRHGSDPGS

HepG2 = assay: In vitro toxicity (MTT), HepG2; assay type: cell-based; details: Homo sapiens, cytotoxicity
Method: (§1) The murine macrophage cell line J774 and human cancer cell lines A549 and HepG2 were maintained in DMEM containing 10% fetal bovine serum (FBS) and 1% penicillin-streptomycin. At passage 7, 10^5 cells/well in DMEM containing 10% FBS were transferred into 96-well plates and cultured for 14 h for the cells to adhere to the wells. The compounds were added to the cells at concentrations ranging from 0.03 to 128 μg/ml. The wells without the compound served as controls. […] After 24 or 48 h, the supernatant was removed and 50 μl of 5-mg/ml 3-(4,5-dimethylthiazol-2-yl)-2,5-diphenyltetrazoliumbromide (MTT) solution in phosphate-buffered saline (PBS) was added to each well. The plates were incubated for an additional 4 h. The formazan crystal formed inside the cell was dissolved by adding 50 μl of dimethyl sulfoxide (DMSO). The optical density was measured at 570 nm.

C. albicans = assay: Mouse model of invasive candidiasis; assay type: in vivo, mice; details: oral gavage 20 mg/kg/day, i.v. infection with 10^4 cells of C. albicans, after 21 days
A549 = assay: In vitro toxicity (MTT), A549; assay type: cell-based; details: Homo sapiens, cytotoxicity
Method: as §1

in vitro [4] = details: mouse, microsomes; for remaining at 0 h, 2 μM: % remaining at 0 min; for remaining at 0.25 h, 2 μM: % remaining at 15 min; for remaining at 0.5 h, 2 μM: % remaining at 30 min; for remaining at 0.75 h, 2 μM: % remaining at 45 min; for remaining at 1 h, 2 μM: % remaining at 60 min
Method: (§2) To test for metabolic stability, 40 μl of 10 mM NADPH solution was added to each well of a 96-well plate. The final concentration of NADPH was 1 mM. The mixture was prewarmed at 37°C for 5 min. The negative-control samples were prepared by replacing NADPH solutions with 40 μl of ultrapure H2O. The negative control was used to exclude the misleading factor that resulted from the instability of the chemical itself. Samples with NADPH were prepared in duplicate. Negative controls were prepared in singlet. The reaction was started with the addition of 4 μl of 200 μM control compound or test compound solutions. […] An aliquot of 90 μl of the supernatant was mixed with 90 μl of ultrapure H2O and then used for LC-MS/MS analysis.

J774 = assay: In vitro toxicity (MTT), J774; assay type: cell-based, murine; details: Mus musculus, cytotoxicity
Method: as §1

C. neoformans [5] = assay: Mouse model of cryptococcosis; assay type: in vivo, mice; details: for mice that survived: treatment immediately after intranasal infection, 40 days
in vitro [6] = details: human, microsomes; for remaining at 0 h, 2 μM: % remaining at 0 min; for remaining at 0.25 h, 2 μM: % remaining at 15 min; for remaining at 0.5 h, 2 μM: % remaining at 30 min; for remaining at 0.75 h, 2 μM: % remaining at 45 min; for remaining at 1 h, 2 μM: % remaining at 60 min
Method: as §2

Caco-2 permeability = details: human; for Papp A→B at 2 h, 5 μM / Papp B→A at 2 h, 5 μM: Caco-2, pH 7.4
Method: (§3) The Caco-2 permeability studies were performed as follows. (i) For the preparation of Caco cells, 50-μl and 25-ml volumes of cell culture medium were added to each well of the Transwell insert and reservoir, respectively. The HTS Transwell plates then were incubated at 37°C, 5% CO2 for 1 h before cell seeding. […] (ii) For the preparation of stock solutions, 10 mM stock solutions of test compounds were prepared in DMSO. The stock solutions of positive controls were prepared in DMSO at a concentration of 10 mM. Digoxin and propranolol were used as control compounds in this assay. (iii) For the assessment of cell monolayer integrity, medium was removed from the reservoir and each Transwell insert and replaced with prewarmed fresh culture medium. Transepithelial electrical resistance (TEER) across the monolayer was measured using a Millicell epithelial volt-Ohm measuring system (Millipore, USA). The plate was returned to the incubator once the measurement was done. The TEER value was calculated according to the following equation: TEER measurement (ohms) × area of membrane (cm^2) = TEER value (ohm · cm^2). The TEER value should be greater than 230 Ω · cm^2, which indicates a well-qualified Caco-2 monolayer. (iv) The assay was performed as follows. The Caco-2 plate was removed from the incubator and washed twice with prewarmed Hanks' balanced salt solution (HBSS; with 10 mM HEPES, pH 7.4) and then incubated at 37°C for 30 min. The stock solutions of control compounds were diluted in DMSO to get 1 mM solutions and then diluted with HBSS (10 mM HEPES, pH 7.4) to get 5 μM working solutions. The stock solutions of the test compounds were diluted in DMSO to get 1 mM solutions and then diluted with HBSS (10 mM HEPES, pH 7.4) to get 5 μM working solutions. The final concentration of DMSO in the incubation system was 0.5%. To determine the rate of drug transport in the apical to basolateral direction, 75 μl of 5 μM working solution of test compound was added to the Transwell insert (apical compartment), and the wells in the receiver plate (basolateral compartment) were filled with 235 μl of HBSS (10 mM HEPES, pH 7.4). To determine the rate of drug transport in the basolateral to apical direction, 235 μl of 5 μM working solution of test compound was added to the receiver plate wells (basolateral compartment), and then the Transwell inserts (apical compartment) were filled with 75 μl of HBSS (10 mM HEPES, pH 7.4). Time zero samples were prepared by transferring 50 μl of 5 μM working solution to wells of the 96-deep-well plate, followed by the addition of 200 μl cold acetonitrile or methanol containing appropriate IS. The plates were incubated at 37°C for 2 h. At the end of the incubation, 50-μl samples from donor sides (apical compartment for AP→BL flux and basolateral compartment for BL→AP) and receiver sides (basolateral compartment for AP→BL flux and apical compartment for BL→AP) were transferred to wells of a new 96-well plate, followed by the addition of 4 volumes of cold acetonitrile or methanol containing appropriate IS. […] An aliquot of 100 μl of the supernatant was mixed with an appropriate volume of ultrapure water before LC-MS/MS analysis. To determine the Lucifer yellow leakage after a 2-h transport period, a stock solution of Lucifer yellow was prepared in ultrapure water and diluted with HBSS (10 mM HEPES, pH 7.4) to reach a final concentration of 100 μM. One hundred microliters of the Lucifer yellow solution was added to each Transwell insert (apical compartment), followed by filling the wells in the receiver plate (basolateral compartment) with 300 μl of HBSS (10 mM HEPES, pH 7.4). The plates were incubated at 37°C for 30 min, and 80-μl samples were removed directly from the apical and basolateral wells (using the basolateral access holes) and transferred to wells of new 96-well plates.

Caco-2 cell line = assay: Caco-2 permeability; details: human, Caco-2, 2 h, 5 μM, pH 7.4
Method: as §3

in vitro [7] = details: monkey
Source text: A commercially available kit was used to examine permeability through the blood-brain barrier (BBB kit MBT-24; Pharmaco Cell Co. Ltd.). This kit allows us to perform a permeability assay using an in vitro reproduction of the blood-brain barrier using monkey brain. Briefly, in a 12-well plate there is a triple culture, with endothelial cells in the luminal part and perycites and astrocytes in the abluminal side connected by tight junctions. The luminal side of the well represents the blood side, whereas the abluminal side represents the brain side. The integrity of the blood-brain barrier is assessed by the measurement of TEER, which indicates the formation of tight junctions. To have an efficient system, the TEER should be >150 Ω cm^2. The kit is kept frozen at −80°C until it is ready to use. […] After that it takes 3 days for the cells to adjust, and then the plate can be used in 4 days for the experiment. For drug testing, after assessing the TEER, the drugs were added in the chosen medium at the desired concentrations and at different time points. At the end of each time point the TEER was measured to assess if the BBB was still intact. After that the medium was collected and subjected to MS to measure the concentration of the samples in the brain side and calculate the permeability value (Papp).

[8] = Cryptococcus neoformans, ChemBridge compounds, Supplementary Table 1, read-out: MIC80
[9] = lowest concentration inhibiting 80% of growth
[10] = i.p. 1.2 mg/kg/day, treatment started 5 days after infection
[11] = oral 20 mg/kg/day starting the day of infection
[12] = oral 20 mg/kg/day, 32 days posttreatment, data not shown

Cc1ccccc1C(=O)N/N=C/c1cc(Br)ccc1O [BHBM, (E)-N′-(3-bromo-6-hydroxybenzylidene)-2-methylbenzohydrazide]
MIC80 (C. neoformans [1]; [8]): 1 µg/mL (≈ 3 µM) | MIC80 (C. neoformans [1]; [9]): 1 µg/mL (≈ 3 µM) | lung fungal burden (CFU) of surviving mice (Aspergillus fumigatus): showed evidence of colonies | mice that survived (Aspergillus fumigatus): 30% | K100* (C. neoformans [2]): >1 µg/mL | IC50 [3]: 11.5 µM | IC50 (HepG2): 32 µg/mL (≈ 96 µM) | mice that survived (C. albicans): 20% | IC50 (A549): 32 µg/mL (≈ 96 µM) | half-life at 2 μM (in vitro [4]): 0.122 h | microsomal CLint at 2 μM (in vitro [4]): 189 µL/min/mg | remaining at 0 h, 2 μM (in vitro [4]; with NADPH): 100% | remaining at 0 h, 2 μM (in vitro [4]; without NADPH): 100% | remaining at 0.25 h, 2 μM (in vitro [4]; with NADPH): 25.3% | remaining at 0.25 h, 2 μM (in vitro [4]; without NADPH): 109% | remaining at 0.5 h, 2 μM (in vitro [4]; with NADPH): 4.93% | remaining at 0.5 h, 2 μM (in vitro [4]; without NADPH): 89.9% | remaining at 0.75 h, 2 μM (in vitro [4]; with NADPH): 1.52% | remaining at 0.75 h, 2 μM (in vitro [4]; without NADPH): 86.3% | remaining at 1 h, 2 μM (in vitro [4]; without NADPH): 84.1% | IC50 (J774): 16 µg/mL (≈ 48 µM) | mice that survived (C. neoformans [5]; i.p. 1.2 mg/kg/day): 50% | day by which all mice died (C. neoformans [5]; [10]): ≤ 30 days | mice that survived until the end of the experiment (C. neoformans [5]; [11]): 10% | half-life at 2 μM (in vitro [6]): 0.814 h | microsomal CLint at 2 μM (in vitro [6]): 28.4 µL/min/mg | remaining at 0 h, 2 μM (in vitro [6]; with NADPH): 100% | remaining at 0 h, 2 μM (in vitro [6]; without NADPH): 100% | remaining at 0.25 h, 2 μM (in vitro [6]; with NADPH): 83.2% | remaining at 0.25 h, 2 μM (in vitro [6]; without NADPH): 101% | remaining at 0.5 h, 2 μM (in vitro [6]; with NADPH): 62.5% | remaining at 0.5 h, 2 μM (in vitro [6]; without NADPH): 88.5% | remaining at 0.75 h, 2 μM (in vitro [6]; with NADPH): 51.3% | remaining at 0.75 h, 2 μM (in vitro [6]; without NADPH): 81.2% | remaining at 1 h, 2 μM (in vitro [6]; without NADPH): 82.7% | Papp A→B at 2 h, 5 μM (Caco-2 permeability): 14.3 ×10⁻⁶ cm/s | Papp B→A at 2 h, 5 μM (Caco-2 permeability): 4.71 ×10⁻⁶ cm/s | recovery at 2 h, 5 μM (Caco-2 permeability; Caco-2, pH 7.4, Recovery AP→BL): ~40% | recovery at 2 h, 5 μM (Caco-2 permeability; Caco-2, pH 7.4, Recovery BL→AP): ~40% | Recovery AP→BL (Caco-2 cell line): 41.88% | Recovery BL→AP (Caco-2 cell line): 39.05% | Papp at 5 min (in vitro [7]): 22 ×10⁻⁶ cm/s | Papp at 15 min (in vitro [7]): 9 ×10⁻⁶ cm/s | Papp at 30 min (in vitro [7]): 9 ×10⁻⁶ cm/s

O=C(N/N=C/c1cc(Br)cc(Br)c1O)c1ccc(Br)cc1 [D13]
MIC80 (C. neoformans [1]; [8]): 0.06 µg/mL (≈ 0.126 µM) | MIC80 (C. neoformans [1]; [9]): 0.06 µg/mL (≈ 0.126 µM) | lung fungal burden (CFU) of surviving mice (Aspergillus fumigatus): only one D13-treated mouse showed evidence of colonies | mice that survived (Aspergillus fumigatus): 80% | K100* (C. neoformans [2]): 0.5 µg/mL | IC50 [3]: > 30 µM | IC50 (HepG2): > 128 µg/mL | mice that survived (C. albicans): 20% | IC50 (A549): > 128 µg/mL | half-life at 2 μM (in vitro [4]): 1.48 h | microsomal CLint at 2 μM (in vitro [4]): 15.7 µL/min/mg | remaining at 0 h, 2 μM (in vitro [4]; with NADPH): 100% | remaining at 0 h, 2 μM (in vitro [4]; without NADPH): 100% | remaining at 0.25 h, 2 μM (in vitro [4]; with NADPH): 80.8% | remaining at 0.25 h, 2 μM (in vitro [4]; without NADPH): 90.7% | remaining at 0.5 h, 2 μM (in vitro [4]; with NADPH): 69.3% | remaining at 0.5 h, 2 μM (in vitro [4]; without NADPH): 88.1% | remaining at 0.75 h, 2 μM (in vitro [4]; with NADPH): 64.6% | remaining at 0.75 h, 2 μM (in vitro [4]; without NADPH): 82.8% | remaining at 1 h, 2 μM (in vitro [4]; with NADPH): ~60% | remaining at 1 h, 2 μM (in vitro [4]; without NADPH): 80.8% | IC50 (J774): 16 µg/mL (≈ 33.5 µM) | mice that survived (C. neoformans [5]; i.p. 1.2 mg/kg/day): 70% | mice that survived until the end of the experiment (C. neoformans [5]; [10]): 40% | mice that survived until the end of the experiment (C. neoformans [5]; [11]): 50% | CFU in brains and lungs (C. neoformans [5]; [12]): only one D13-treated mouse showed fungal colonies and only in the lung | fungal cells in brains (C. neoformans [5]; [12]): clear of fungal cells | half-life at 2 μM (in vitro [6]): 1.72 h | microsomal CLint at 2 μM (in vitro [6]): 13.4 µL/min/mg | remaining at 0 h, 2 μM (in vitro [6]; with NADPH): 100% | remaining at 0 h, 2 μM (in vitro [6]; without NADPH): 100% | remaining at 0.25 h, 2 μM (in vitro [6]; with NADPH): 83.9% | remaining at 0.25 h, 2 μM (in vitro [6]; without NADPH): 96.5% | remaining at 0.5 h, 2 μM (in vitro [6]; with NADPH): 73% | remaining at 0.5 h, 2 μM (in vitro [6]; without NADPH): 86.5% | remaining at 0.75 h, 2 μM (in vitro [6]; with NADPH): 73.1% | remaining at 0.75 h, 2 μM (in vitro [6]; without NADPH): 81.9% | remaining at 1 h, 2 μM (in vitro [6]; with NADPH): ~60% | remaining at 1 h, 2 μM (in vitro [6]; without NADPH): 88.9% | Papp A→B at 2 h, 5 μM (Caco-2 permeability): 0.13 ×10⁻⁶ cm/s | Papp B→A at 2 h, 5 μM (Caco-2 permeability): < 1 ×10⁻⁶ cm/s | efflux ratio at 2 h, 5 μM (Caco-2 permeability; Caco-2, pH 7.4, Efflux ratio): < 2 | recovery at 2 h, 5 μM (Caco-2 permeability; Caco-2, pH 7.4, Recovery AP→BL): 49.8% | recovery at 2 h, 5 μM (Caco-2 permeability; Caco-2, pH 7.4, Recovery BL→AP): 107% | Efflux ratio (Caco-2 cell line): 1.74 | Papp at 5 min (in vitro [7]): 6.8 ×10⁻⁶ cm/s | Papp at 15 min (in vitro [7]): 2.2 ×10⁻⁶ cm/s | Papp at 30 min (in vitro [7]): 1.1 ×10⁻⁶ cm/s
